Measurements published in ChEMBL document CHEMBL5338747, “Discovery of Quaternized Pyridine-Thiazole-Pleuromutilin Derivatives with Broad-Spectrum Antibacterial and Potent Anti-MRSA Activity” (J Med Chem, 2023).
Active and inactive are the calls of the source. No cut-off for these calls is given here.

Tests used:
Staphylococcus aureus [1] = assay: Antibacterial activity against methicillin-resistant Staphylococcus aureus ATCC 43300 assessed as inhibition of bacterial growth incubated for 24 hrs by broth microdilution method; format: functional
[2] = system: Mycoplasmoides pneumoniae; assay: Anti-mycoplasma activity against Mycoplasma pneumoniae M129 ATCC15531 assessed as inhibition of mycoplasma growth measured after 7 days by broth microdilution method; format: functional; settings: M129 ATCC15531, 168 h, time 7 day
Enterococcus = assay: Antibacterial activity against vancomycin-resistant Enterococcus 80 assessed as inhibition of bacterial growth incubated for 24 hrs by broth microdilution method; format: functional
Acinetobacter baumannii = assay: Antibacterial activity against Acinetobacter baumannii ATCC 19606 assessed as inhibition of bacterial growth incubated for 24 hrs by broth microdilution method; format: functional
Staphylococcus aureus [3] = assay: Antibacterial activity against methicillin-resistant Staphylococcus aureus ATCC 33591 infected in Kunming mouse assessed as reduction in bacterial load in liver at 5 to 10 mg/kg, ip for 2 days starting from 1 hr post-infection by hematoxylin-eosin staining based analysis; format: functional, organism-based; settings: dose 5-10 mg/kg, time 2.0 day
[4] = system: Mycoplasmoides gallisepticum; assay: Anti-mycoplasma activity against Mycoplasma gallisepticum R NCTC10115 assessed as inhibition of mycoplasma growth measured after 7 days by broth microdilution method; format: functional; settings: R NCTC10115, 168 h, time 7 day
Cell membrane [5] = assay: Disruption of bacterial cell membrane in methicillin-resistant Staphylococcus aureus ATCC 33591 assessed as reduction in green fluorescence intensity at MIC incubated for 2 hrs by MycoLightGreen1198/PI staining based confocal laser scanning microscopy; format: subcellular
Cell membrane [6] = assay: Disruption of bacterial cell membrane in Escherichia coli ATCC 25922 assessed as increase in red fluorescence intensity at MIC incubated for 2 hrs by MycoLightGreen1198/PI staining based confocal laser scanning microscopy
Staphylococcus aureus [7] = assay: Antibacterial activity against […] assessed as inhibition of bacterial growth incubated for 24 hrs by broth microdilution method; format: functional; settings: ATCC 29213
Staphylococcus aureus [8] = assay: Antibacterial activity against methicillin-resistant Staphylococcus aureus ATCC 33591 infected in Kunming mouse assessed as reduction in bacterial load in lungs at 5 to 10 mg/kg, ip for 2 days starting from 1 hr post-infection by hematoxylin-eosin staining based analysis; format: functional, organism-based; settings: dose 5-10 mg/kg, time 2.0 day
[9] = Drug metabolism in Sprague-Dawley rat plasma assessed as metabolite formation at 10 mg/kg, iv measured after 1 hr by UPLC/Q-TOF-MS analysis; format: ADME, organism-based; settings: in vivo
[10] = Tmax in Sprague-Dawley rat at 1 mg/kg, iv by LC-MS analysis; format: ADME, organism-based; settings: in vivo
Staphylococcus aureus [11] = assay: Disruption of biofilm formation in methicillin-resistant Staphylococcus aureus ATCC 33591 assessed as inhibition of biofilm formation at 4XMIC measured after 24 hrs by crystal violet staining based analysis; format: functional
Staphylococcus aureus [12] = assay: Antibacterial activity against methicillin-resistant Staphylococcus aureus 596 assessed as inhibition of bacterial growth incubated for 24 hrs by broth microdilution method; format: functional
Metamycoplasma hominis = assay: Anti-mycoplasma activity against Mycoplasma hominis PG-21 ATCC23114 assessed as inhibition of mycoplasma growth measured after 7 days by broth microdilution method; format: functional; settings: PG-21 ATCC23114, 168 h, time 7 day
Cell membrane [13] = assay: Disruption of bacterial cell membrane in Escherichia coli ATCC 25922 assessed as increase in red fluorescence intensity at 4XMIC incubated for 2 hrs by MycoLightGreen1198/PI staining based confocal laser scanning microscopy
Staphylococcus aureus [14] = assay: Bactericidal activity against methicillin-resistant Staphylococcus aureus ATCC 33591 assessed as reduction in bacterial colonies formation at 4XMIC incubated for 8 hrs in MHB followed by culturing on agar plate for 24 hrs by time-kill kinetics based analysis; format: functional; set-up: scale not given: the % may be the effect or the level left; settings: time 32 hrs
Mycoplasmopsis synoviae = assay: Potency index, ratio of tiamulin MIC to test compound MIC against anti-mycoplasma activity against Mycoplasma synoviae WVU1853 NCTC10124; format: functional
[15] = Cytotoxicity against human HEK293 cells assessed as reduction in cell viability measured after 48 hrs by CCK8 assay; format: toxicity, cell-based
Cell membrane [16] = assay: Disruption of bacterial cell membrane in Escherichia coli ATCC 25922 assessed as severe depression on the cell surface,cell rupture and leakage of intracellular components at 4XMIC incubated for 4 hrs by FESEM analysis; format: subcellular
Staphylococcus aureus [17] = assay: Antibacterial activity against methicillin-resistant Staphylococcus aureus 575 assessed as inhibition of bacterial growth incubated for 24 hrs by broth microdilution method; format: functional
Staphylococcus aureus [18] = assay: Antibacterial activity against methicillin-resistant Staphylococcus aureus ATCC 33591 infected in Kunming mouse assessed as reduction in bacterial load in kidney at 5 to 10 mg/kg, ip for 2 days starting from 1 hr post-infection by hematoxylin-eosin staining based analysis; format: functional, organism-based; settings: dose 5-10 mg/kg, time 2.0 day
[19] = system: Mycoplasmoides gallisepticum; assay: Potency index, ratio of tiamulin MIC to test compound MIC against anti-mycoplasma activity against Mycoplasma gallisepticum R NCTC10115; format: functional
Escherichia coli [20] = assay: Antibacterial activity against Escherichia coli ATCC 25922 assessed as inhibition of bacterial growth incubated for 24 hrs by broth microdilution method; format: functional
Staphylococcus aureus [21] = assay: Antibacterial activity against methicillin-resistant Staphylococcus aureus ATCC 33591 infected in Kunming mouse assessed as animal survival rate at 10 mg/kg, ip for 7 days starting from 1 hr post-infection; format: functional; settings: ATCC 33591, 168 h, time 7 day
[22] = Aqueous solubility of the compound in physiological saline measured after 12 hrs by UV spectrophotometric analysis; format: physicochemical
[23] = MRT in Sprague-Dawley rat at 1 mg/kg, iv by LC-MS analysis; format: ADME, organism-based; settings: in vivo
Mycoplasma genitalium = assay: Anti-mycoplasma activity against Mycoplasma genitalium G37 ATCC33530 assessed as inhibition of mycoplasma growth measured after 7 days by broth microdilution method; format: functional; settings: Mycoplasmoides genitalium, G37 ATCC33530, 168 h; time 7 day
Cell membrane [24] = assay: Disruption of bacterial cell membrane in methicillin-resistant Staphylococcus aureus ATCC 33591 assessed as increase in red fluorescence intensity at 4XMIC incubated for 2 hrs by MycoLightGreen1198/PI staining based confocal laser scanning microscopy; format: subcellular
Staphylococcus aureus [25] = assay: Antibacterial activity against methicillin-resistant Staphylococcus aureus ATCC 33591 assessed as inhibition of bacterial growth incubated for 24 hrs by broth microdilution method; format: functional
Escherichia coli [26] = assay: Bactericidal activity against Escherichia coli ATCC 25922 assessed as reduction in bacterial colonies formation at 2XMIC incubated for 12 hrs in MHB followed by culturing on agar plate for 24 hrs by time-kill kinetics based analysis; format: functional; set-up: scale not given: the % may be the effect or the level left; settings: time 36 hrs
Cell membrane [27] = assay: Disruption of bacterial cell membrane in methicillin-resistant Staphylococcus aureus ATCC 33591 assessed as increase in number of surface folds and atrophy at MIC incubated for 4 hrs by FESEM analysis; format: subcellular
Pseudomonas aeruginosa = assay: Antibacterial activity against multidrug-resistant Pseudomonas aeruginosa 126 assessed as inhibition of bacterial growth incubated for 24 hrs by broth microdilution method; format: functional
Salmonella enterica = assay: Antibacterial activity against Salmonella enterica ATCC 14028 assessed as inhibition of bacterial growth incubated for 24 hrs by broth microdilution method; format: functional
Cell membrane [28] = assay: Disruption of bacterial cell membrane in Escherichia coli ATCC 25922 assessed as reduction in green fluorescence intensity at MIC incubated for 2 hrs by MycoLightGreen1198/PI staining based confocal laser scanning microscopy

## C=C[C@]1(C)C[C@@H](OC(=O)CSc2nc(-c3cc[n+](Cc4ccc(C)cc4)cc3)cs2)[C@]2(C)[C@H](C)CC[C@]3(CCC(=O)[C@H]32)[C@@H](C)[C@@H]1O.[Br-]
Staphylococcus aureus [1]
  MIC: 0.5 µg/mL
[2]
  MIC: 0.03 µg/mL
Enterococcus
  MIC: 2 µg/mL
Acinetobacter baumannii
  MIC: 1 µg/mL
Staphylococcus aureus [3]
  Activity: Active
[4]
  MIC: 0.004 µg/mL
Cell membrane [5]
  Activity: Active
Cell membrane [6]
  Activity: Active
Staphylococcus aureus [7]
  MIC: 0.062 µg/mL
Staphylococcus aureus [8]
  Activity: Active
[9]
  Drug metabolism: Metabolite_Detected
[10]
  Tmax: 1.8 min
Staphylococcus aureus [11]
  inhibition (INH): 86.43%
Staphylococcus aureus [12]
  MIC: 2 µg/mL
Metamycoplasma hominis
  MIC: 0.015 µg/mL
Cell membrane [13]
  Activity: 100%
Staphylococcus aureus [14]
  Activity: 100%
Mycoplasmopsis synoviae
  Ratio: 10
[15]
  CC50 at 48 h: > 100 µM
Cell membrane [16]
  Activity: Active
Staphylococcus aureus [17]
  MIC: 8 µg/mL
Staphylococcus aureus [18]
  Activity: Active
[19]
  Ratio: 10
Escherichia coli [20]
  MIC: 0.062 µg/mL
Staphylococcus aureus [21]
  survival at 10 mg/kg: 71.4%
[22]
  solubility at 12 h: 862 µM
[23]
  MRT: 34.8 min
Mycoplasma genitalium
  MIC: 0.015 µg/mL
Cell membrane [24]
  Activity: 100%
Staphylococcus aureus [25]
  MIC: 1 µg/mL
Escherichia coli [26]
  Activity: 100%
Cell membrane [27]
  Activity: Active
Pseudomonas aeruginosa
  MIC: 64 µg/mL
Salmonella enterica
  MIC: 2 µg/mL
Cell membrane [28]
  Activity: Active
